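48-hour exposure; five concentrations; linearly interpolated endpoints. Abbreviation: GI50, concentration required for 50% inhibition of growth. TGI is the concentration that stops growth completely.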
Legend:
Experiment in all cases: growth of human tumour cells (NCI), 48 h
HCT-116 colon = system: HCT-116 colon
ACHN renal = system: ACHN renal
NCI-H522 lung = system: NCI-H522 lung
SK-MEL-28 melanoma = system: SK-MEL-28 melanoma
NCI-H23 lung = system: NCI-H23 lung
HL-60(TB) leukemia = system: HL-60(TB) leukemia
OVCAR-8 ovarian = system: OVCAR-8 ovarian
A498 renal = system: A498 renal
COLO 205 colon = system: COLO 205 colon
MALME-3M melanoma = system: MALME-3M melanoma

SMILES | GI50 (HCT-116 colon) [µM] | TGI (HCT-116 colon) [µM] | GI50 (ACHN renal) [µM] | TGI (ACHN renal) [µM] | GI50 (NCI-H522 lung) [µM] | TGI (NCI-H522 lung) [µM] | GI50 (SK-MEL-28 melanoma) [µM] | TGI (SK-MEL-28 melanoma) [µM] | GI50 (NCI-H23 lung) [µM] | TGI (NCI-H23 lung) [µM] | GI50 (HL-60(TB) leukemia) [µM] | TGI (HL-60(TB) leukemia) [µM] | GI50 (OVCAR-8 ovarian) [µM] | TGI (OVCAR-8 ovarian) [µM] | GI50 (A498 renal) [µM] | TGI (A498 renal) [µM] | GI50 (COLO 205 colon) [µM] | TGI (COLO 205 colon) [µM] | GI50 (MALME-3M melanoma) [µM] | TGI (MALME-3M melanoma) [µM]
N#Cc1cc(S(=O)(=O)Nc2nc3ccccc3s2)c(SCc2ccccc2)cc1Cl | 16.1 | 32.5 | 24.7 | 75 | 11.3 | 32.3 | 28.8 | 87.8 | 22.4 | 57.7 | 51.5 | > 100 | 6.12 | 39.8 | 20.3 | 45.8 | 26.5 | 88.6 | 21.4 | 49.6
COc1ccc2nc(NC(=O)c3cccnc3Nc3cc(OC)c(OC)c(OC)c3)sc2c1 | 4.5 | 18.4 | 6.47 | 20.6 | 2.6 | 12 | 7.88 | 21.3 | 5.38 | 22.7 | 32.3 | > 100 | 6.52 | 22.6 | 2.19 | 7.42 | 17.4 | 51.5 | 10.1 | 24.6
C/C=C(\C)C(=O)N[C@H]1C(O)C[C@]2(C)C3CC[C@@]4(C)C(CC[C@@H]4C(C)N(C)C)C3CCC2C1O (some centres not stated) | 2.28 | 6.39 | 10.3 | 43.4 | 11.2 | > 43.7 | 2.04 | 3.83 | 13.1 | 49.7 | 4.44 | 16.9 | 28.9 | > 90.8 | 10.4 | 30.1 | 1.74 | 3.48 | 2.6 | 7.47
CC(Br)C(=O)Nc1ccc(C(=O)O)c(O)c1 (configuration not stated) |  | > 100 |  | > 100 |  | 47.1 |  | > 100 |  | 68.9 |  | > 100 |  | > 100 |  | > 100 |  | > 100 |  | 42.1
CCN(CC)CCOc1ccc(C(=O)/C=C\c2ccc(Cl)cc2Cl)cc1 | 1.56 | 3.31 | 4.73 | 17.8 | 15.2 | 35.6 | 2.55 | 7.75 | 7.15 | 22.1 | 2.67 | 6.25 | 13.4 | 28.1 | 12.3 | 24.7 | 1.95 | 5.15 | 3.41 | 15.3
COC(=O)CCC(=O)NC1C2CC3CC(C2)CC1C3 (configuration not stated) |  | > 100 |  | > 100 |  | > 100 |  | > 100 |  | > 100 |  | > 100 |  | > 100 |  | > 100 |  | > 100 |  | > 100
COc1ccc(OC)c(Nc2nc(-c3c(C)nc4sccn34)cs2)c1 | > 100 | > 100 | 38.6 | > 100 | 52.6 | > 100 | 58.9 | > 100 | 51.1 | > 100 | > 100 | > 100 | 7.22 | > 100 | 1.63 | > 100 | > 100 | > 100 | > 100 | > 100
Cc1ccc(-c2nc(N3CCCNCC3)c3oc(-c4ccc(C)cc4)nc3n2)cc1 | 1.57 | 2.92 | 1.75 | 3.13 | 1.75 | 3.51 | 1.93 | 3.51 | 19.9 | 88.2 | 0.179 | 0.371 | 2.11 | 4.22 | 15.8 | 31.7 | 1.89 | 3.55 | 1.98 | 3.61
COc1ccc(C2=CC(c3ccc(OC)c(OC)c3)c3c(c4ccccc4oc3=O)O2)cc1OC (configuration not stated) | 1.58 | > 59.6 | 3.03 | > 100 | 1.44 |  |  | > 100 | 4.91 | > 100 | 2.32 |  | 4.9 | > 100 | 0.892 | > 20.2 | 2.04 | > 24.2 | > 100 | > 100
CC1=CC(=O)N(c2c(C)cccc2Cl)C(C)N1 (configuration not stated) |  | > 100 |  | > 100 |  | > 100 |  | > 100 |  | > 100 |  | > 100 |  | > 100 |  | > 100 |  | > 100 |  | > 100

From PubChem BioAssay (NCI)
